The values below are quoted from earlier work in US20080300217A1, “Combination Therapy with Fumaric Acid Esters for the Treatment of Autoimmune and/or Inflammatory Disorders” (ADITECH PHARMA AB, priority 2005, published 2008).

The conditions of this data set: pentoxifylline added to the standard Fumaderm treatment; psoriasis patients.

SMILES strings stand for the structures.

With `CC(=O)CCCCn1c(=O)c2c(ncn2C)n(C)c1=O` [pentoxifylline], the “flush symptoms in patients” value is given as “reduced the flush symptoms in patients”.
